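Cultured in 96-well plates, cells were exposed to test compound for 48 hours across five concentrations. TGI: concentration producing complete growth inhibition.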
Legend:
Assay in all cases: inhibition of tumour cell growth, NCI panel, 48 h
UACC-257 melanoma = system: UACC-257 melanoma
IGROV1 ovarian = system: IGROV1 ovarian
LOX IMVI melanoma = system: LOX IMVI melanoma
HOP-92 NSCLC = system: HOP-92 NSCLC
T-47D breast = system: T-47D breast
SNB-75 CNS = system: SNB-75 CNS
RPMI-8226 leukemia = system: RPMI-8226 leukemia
U251 CNS = system: U251 CNS
BT-549 breast = system: BT-549 breast
MOLT-4 leukemia = system: MOLT-4 leukemia
PC-3 prostate = system: PC-3 prostate
CCRF-CEM leukemia = system: CCRF-CEM leukemia
UACC-62 melanoma = system: UACC-62 melanoma
MDA-N = system: MDA-N
SK-MEL-2 melanoma = system: SK-MEL-2 melanoma
SF-295 CNS = system: SF-295 CNS
SF-268 CNS = system: SF-268 CNS
COLO 205 colon = system: COLO 205 colon
EKVX NSCLC = system: EKVX NSCLC
KM12 colon = system: KM12 colon
OVCAR-8 ovarian = system: OVCAR-8 ovarian
UO-31 renal = system: UO-31 renal
SK-MEL-5 melanoma = system: SK-MEL-5 melanoma
OVCAR-3 ovarian = system: OVCAR-3 ovarian
OVCAR-4 ovarian = system: OVCAR-4 ovarian
HL-60(TB) leukemia = system: HL-60(TB) leukemia
SK-OV-3 ovarian = system: SK-OV-3 ovarian
MCF7 breast = system: MCF7 breast
NCI-H460 lung = system: NCI-H460 lung
CAKI-1 renal = system: CAKI-1 renal
M14 melanoma = system: M14 melanoma
HCC-2998 colon = system: HCC-2998 colon
NCI/ADR-RES ovarian = system: NCI/ADR-RES ovarian
MDA-MB-231 breast = system: MDA-MB-231 breast
OVCAR-5 ovarian = system: OVCAR-5 ovarian
NCI-H522 lung = system: NCI-H522 lung
HOP-62 NSCLC = system: HOP-62 NSCLC
RXF 393 renal = system: RXF 393 renal
HCT-116 colon = system: HCT-116 colon
NCI-H226 lung = system: NCI-H226 lung
HCT-15 colon = system: HCT-15 colon
786-0 renal = system: 786-0 renal
HT29 colon = system: HT29 colon
SW-620 colon = system: SW-620 colon
SK-MEL-28 melanoma = system: SK-MEL-28 melanoma
K-562 leukemia = system: K-562 leukemia
MALME-3M melanoma = system: MALME-3M melanoma
ACHN renal = system: ACHN renal
MDA-MB-435 = system: MDA-MB-435
SNB-19 CNS = system: SNB-19 CNS
A549 NSCLC = system: A549 NSCLC
SN12C renal = system: SN12C renal
NCI-H23 lung = system: NCI-H23 lung
A498 renal = system: A498 renal
SR leukemia = system: SR leukemia
HS 578T breast = system: HS 578T breast
DU-145 prostate = system: DU-145 prostate
TK-10 renal = system: TK-10 renal
SF-539 CNS = system: SF-539 CNS

O=C1O[C@H]2[C@H](O)[C@@H](OC(=O)c3cc(O)c(O)c4c3[C@@H]3C1=CC(=O)C(O)(O)C3(O)O4)[C@H](OC(=O)c1cc(O)c(O)c(O)c1)O[C@@H]2CO (stereo partly drawn)
TGI (UACC-257 melanoma): > 100 µM | TGI (IGROV1 ovarian): > 100 µM | TGI (LOX IMVI melanoma): > 100 µM | TGI (HOP-92 NSCLC): > 100 µM | TGI (T-47D breast): > 100 µM | TGI (SNB-75 CNS): > 100 µM | TGI (RPMI-8226 leukemia): > 100 µM | TGI (U251 CNS): > 100 µM | TGI (BT-549 breast): > 100 µM | TGI (MOLT-4 leukemia): > 100 µM | TGI (PC-3 prostate): > 100 µM | TGI (CCRF-CEM leukemia): 46.1 µM | TGI (UACC-62 melanoma): > 100 µM | TGI (MDA-N): > 100 µM | TGI (SK-MEL-2 melanoma): > 100 µM | TGI (SF-295 CNS): > 100 µM | TGI (SF-268 CNS): > 100 µM | TGI (COLO 205 colon): > 100 µM | TGI (EKVX NSCLC): > 100 µM | TGI (KM12 colon): > 100 µM | TGI (OVCAR-8 ovarian): > 100 µM | TGI (UO-31 renal): > 100 µM | TGI (SK-MEL-5 melanoma): > 100 µM | TGI (OVCAR-3 ovarian): > 100 µM | TGI (OVCAR-4 ovarian): > 100 µM | TGI (HL-60(TB) leukemia): > 100 µM | TGI (SK-OV-3 ovarian): > 100 µM | TGI (MCF7 breast): > 100 µM | TGI (NCI-H460 lung): > 100 µM | TGI (CAKI-1 renal): > 100 µM | TGI (M14 melanoma): > 100 µM | TGI (HCC-2998 colon): > 100 µM | TGI (NCI/ADR-RES ovarian): > 100 µM | TGI (MDA-MB-231 breast): > 100 µM | TGI (OVCAR-5 ovarian): > 100 µM | TGI (NCI-H522 lung): > 100 µM | TGI (HOP-62 NSCLC): > 100 µM | TGI (RXF 393 renal): > 100 µM | TGI (HCT-116 colon): > 100 µM | TGI (NCI-H226 lung): > 100 µM | TGI (HCT-15 colon): > 100 µM | TGI (786-0 renal): > 100 µM | TGI (HT29 colon): > 100 µM | TGI (SW-620 colon): > 100 µM | TGI (SK-MEL-28 melanoma): > 100 µM | TGI (K-562 leukemia): > 100 µM | TGI (MALME-3M melanoma): > 100 µM | TGI (ACHN renal): > 100 µM | TGI (MDA-MB-435): > 100 µM | TGI (SNB-19 CNS): > 100 µM | TGI (A549 NSCLC): > 100 µM | TGI (SN12C renal): > 100 µM | TGI (NCI-H23 lung): > 100 µM | TGI (A498 renal): > 100 µM | TGI (SR leukemia): > 100 µM | TGI (HS 578T breast): > 100 µM | TGI (DU-145 prostate): > 100 µM

CCOC(=O)C(C(=O)c1ccccc1C(=O)OC)=P(c1ccccc1)(c1ccccc1)c1ccccc1
TGI (TK-10 renal): > 10 µM | TGI (UACC-257 melanoma): > 10 µM | TGI (IGROV1 ovarian): > 10 µM | TGI (LOX IMVI melanoma): > 10 µM | TGI (HOP-92 NSCLC): > 10 µM | TGI (T-47D breast): > 10 µM | TGI (SNB-75 CNS): > 10 µM | TGI (RPMI-8226 leukemia): > 10 µM | TGI (U251 CNS): > 10 µM | TGI (BT-549 breast): > 10 µM | TGI (MOLT-4 leukemia): > 10 µM | TGI (PC-3 prostate): > 10 µM | TGI (CCRF-CEM leukemia): > 10 µM | TGI (UACC-62 melanoma): > 10 µM | TGI (MDA-N): > 10 µM | TGI (SK-MEL-2 melanoma): > 10 µM | TGI (SF-295 CNS): > 10 µM | TGI (SF-268 CNS): > 10 µM | TGI (COLO 205 colon): > 10 µM | TGI (EKVX NSCLC): > 10 µM | TGI (KM12 colon): > 10 µM | TGI (OVCAR-8 ovarian): > 10 µM | TGI (UO-31 renal): > 10 µM | TGI (SK-MEL-5 melanoma): > 10 µM | TGI (OVCAR-3 ovarian): > 10 µM | TGI (OVCAR-4 ovarian): > 10 µM | TGI (HL-60(TB) leukemia): > 10 µM | TGI (SK-OV-3 ovarian): > 10 µM | TGI (MCF7 breast): > 10 µM | TGI (NCI-H460 lung): > 10 µM | TGI (CAKI-1 renal): > 10 µM | TGI (SF-539 CNS): > 10 µM | TGI (M14 melanoma): > 10 µM | TGI (HCC-2998 colon): > 10 µM | TGI (NCI/ADR-RES ovarian): > 10 µM | TGI (MDA-MB-231 breast): > 10 µM | TGI (OVCAR-5 ovarian): > 10 µM | TGI (NCI-H522 lung): > 10 µM | TGI (HOP-62 NSCLC): > 10 µM | TGI (RXF 393 renal): > 10 µM | TGI (HCT-116 colon): > 10 µM | TGI (NCI-H226 lung): > 10 µM | TGI (HCT-15 colon): > 10 µM | TGI (786-0 renal): > 10 µM | TGI (HT29 colon): > 10 µM | TGI (SW-620 colon): > 10 µM | TGI (SK-MEL-28 melanoma): > 10 µM | TGI (K-562 leukemia): > 10 µM | TGI (MALME-3M melanoma): > 10 µM | TGI (ACHN renal): > 10 µM | TGI (MDA-MB-435): > 10 µM | TGI (SNB-19 CNS): > 10 µM | TGI (A549 NSCLC): > 10 µM | TGI (SN12C renal): > 10 µM | TGI (NCI-H23 lung): > 10 µM | TGI (A498 renal): > 10 µM | TGI (HS 578T breast): > 10 µM | TGI (DU-145 prostate): > 10 µM

CC(=O)NNc1nc(C)c(C(/C=C/c2ccc([N+](=O)[O-])cc2)=N/NC(N)=S)s1
TGI (TK-10 renal): > 100 µM | TGI (UACC-257 melanoma): > 100 µM | TGI (IGROV1 ovarian): > 100 µM | TGI (LOX IMVI melanoma): > 100 µM | TGI (HOP-92 NSCLC): > 100 µM | TGI (T-47D breast): > 100 µM | TGI (SNB-75 CNS): > 100 µM | TGI (RPMI-8226 leukemia): > 100 µM | TGI (U251 CNS): > 100 µM | TGI (BT-549 breast): > 100 µM | TGI (MOLT-4 leukemia): > 100 µM | TGI (PC-3 prostate): > 100 µM | TGI (CCRF-CEM leukemia): > 100 µM | TGI (UACC-62 melanoma): > 100 µM | TGI (MDA-N): > 100 µM | TGI (SK-MEL-2 melanoma): > 100 µM | TGI (SF-295 CNS): > 100 µM | TGI (SF-268 CNS): > 100 µM | TGI (COLO 205 colon): > 100 µM | TGI (EKVX NSCLC): > 100 µM | TGI (KM12 colon): > 100 µM | TGI (OVCAR-8 ovarian): > 100 µM | TGI (UO-31 renal): > 100 µM | TGI (SK-MEL-5 melanoma): > 100 µM | TGI (OVCAR-3 ovarian): > 100 µM | TGI (OVCAR-4 ovarian): > 100 µM | TGI (HL-60(TB) leukemia): > 100 µM | TGI (SK-OV-3 ovarian): > 100 µM | TGI (MCF7 breast): > 100 µM | TGI (NCI-H460 lung): > 100 µM | TGI (CAKI-1 renal): > 100 µM | TGI (SF-539 CNS): > 100 µM | TGI (M14 melanoma): > 100 µM | TGI (HCC-2998 colon): > 100 µM | TGI (NCI/ADR-RES ovarian): > 100 µM | TGI (MDA-MB-231 breast): > 100 µM | TGI (OVCAR-5 ovarian): > 100 µM | TGI (NCI-H522 lung): > 100 µM | TGI (HOP-62 NSCLC): > 100 µM | TGI (RXF 393 renal): > 100 µM | TGI (HCT-116 colon): > 100 µM | TGI (NCI-H226 lung): > 100 µM | TGI (HCT-15 colon): > 100 µM | TGI (786-0 renal): > 100 µM | TGI (HT29 colon): > 100 µM | TGI (SW-620 colon): > 100 µM | TGI (SK-MEL-28 melanoma): > 100 µM | TGI (MALME-3M melanoma): > 100 µM | TGI (ACHN renal): > 100 µM | TGI (MDA-MB-435): > 100 µM | TGI (SNB-19 CNS): > 100 µM | TGI (A549 NSCLC): > 100 µM | TGI (SN12C renal): > 100 µM | TGI (NCI-H23 lung): > 100 µM | TGI (A498 renal): > 100 µM | TGI (SR leukemia): > 100 µM | TGI (HS 578T breast): > 100 µM | TGI (DU-145 prostate): > 100 µM
